Experimental data published in ChEMBL document CHEMBL5143557, “Synthesis and biological evaluation of 3β-O-neoglycosides of caudatin and its analogues as potential anticancer agents” (Bioorg Med Chem, 2022).

How the values were obtained:
HepG2 [1] = experiment: Cell cycle arrest in human HepG2 cells assessed as number of cells at G2 phase at 10 uM after 48 hrs by flow cytometry (reference value: 16.28%); type: functional
HepG2 [2] = experiment: Induction of apoptosis in human HepG2 cells assessed as early apoptotic cells at 5 uM measured after 48 hrs by annexin-V and PI staining based flow cytometry (reference value: 4.11%); type: functional
HepG2 [3] = experiment: Induction of apoptosis in human HepG2 cells assessed as necrotic cells at 20 uM measured after 48 hrs by annexin-V and PI staining based flow cytometry (reference value: 0.363%); type: functional
HepG2 [4] = experiment: Cell cycle arrest in human HepG2 cells assessed as number of cells at G1 phase at 5 uM after 48 hrs by flow cytometry (reference value: 57.68%); type: functional
HeLa = experiment: Antiproliferative activity against human HeLa cells after 48 hrs by MTT assay; type: functional, cell-based
HepG2 [5] = experiment: Cell cycle arrest in human HepG2 cells assessed as number of cells at G2 phase at 20 uM after 48 hrs by flow cytometry (reference value: 16.28%); type: functional
HCT-116 = experiment: Antiproliferative activity against human HCT-116 cells after 48 hrs by MTT assay; type: functional, cell-based; conditions: HCT-116, 48 h
HepG2 [6] = experiment: Antiproliferative activity against human HepG2 cells after 48 hrs by MTT assay; type: functional, cell-based; conditions: HepG2, 48 h
HepG2 [7] = experiment: Induction of apoptosis in human HepG2 cells assessed as live cells at 10 uM measured after 48 hrs by annexin-V and PI staining based flow cytometry (reference value: 91%); type: functional
MCF7 = experiment: Antiproliferative activity against human MCF7 cells after 48 hrs by MTT assay; type: functional, cell-based; conditions: MCF7, 48 h
HepG2 [8] = experiment: Cell cycle arrest in human HepG2 cells assessed as number of cells at G1 phase at 10 uM after 48 hrs by flow cytometry (reference value: 57.68%); type: functional
HepG2 [9] = experiment: Induction of apoptosis in human HepG2 cells assessed as necrotic cells at 5 uM measured after 48 hrs by annexin-V and PI staining based flow cytometry (reference value: 0.363%); type: functional
HepG2 [10] = experiment: Cell cycle arrest in human HepG2 cells assessed as number of cells at S phase at 10 uM after 48 hrs by flow cytometry (reference value: 24.31%); type: functional
HepG2 [11] = experiment: Induction of apoptosis in human HepG2 cells assessed as early apoptotic cells at 20 uM measured after 48 hrs by annexin-V and PI staining based flow cytometry (reference value: 4.11%); type: functional
HepG2 [12] = experiment: Induction of apoptosis in human HepG2 cells assessed as early apoptotic cells at 10 uM measured after 48 hrs by annexin-V and PI staining based flow cytometry (reference value: 4.11%); type: functional
HepG2 [13] = experiment: Induction of apoptosis in human HepG2 cells assessed as live cells at 5 uM measured after 48 hrs by annexin-V and PI staining based flow cytometry (reference value: 91%); type: functional
HepG2 [14] = experiment: Induction of apoptosis in human HepG2 cells assessed as live cells at 20 uM measured after 48 hrs by annexin-V and PI staining based flow cytometry (reference value: 91%); type: functional
HepG2 [15] = experiment: Induction of apoptosis in human HepG2 cells assessed as late apoptotic cells at 10 uM measured after 48 hrs by annexin-V and PI staining based flow cytometry (reference value: 4.52%); type: functional
HepG2 [16] = experiment: Induction of apoptosis in human HepG2 cells assessed as necrotic cells at 10 uM measured after 48 hrs by annexin-V and PI staining based flow cytometry (reference value: 0.363%); type: functional
HepG2 [17] = experiment: Cell cycle arrest in human HepG2 cells assessed as number of cells at G1 phase at 20 uM after 48 hrs by flow cytometry (reference value: 57.68%); type: functional
HepG2 [18] = experiment: Induction of apoptosis in human HepG2 cells assessed as late apoptotic cells at 5 uM measured after 48 hrs by annexin-V and PI staining based flow cytometry (reference value: 4.52%); type: functional
HepG2 [19] = experiment: Cell cycle arrest in human HepG2 cells assessed as number of cells at S phase at 5 uM after 48 hrs by flow cytometry (reference value: 24.31%); type: functional
HepG2 [20] = experiment: Induction of apoptosis in human HepG2 cells assessed as late apoptotic cells at 20 uM measured after 48 hrs by annexin-V and PI staining based flow cytometry (reference value: 4.52%); type: functional
HepG2 [21] = experiment: Cell cycle arrest in human HepG2 cells assessed as number of cells at G2 phase at 5 uM after 48 hrs by flow cytometry (reference value: 16.28%); type: functional
HepG2 [22] = experiment: Cell cycle arrest in human HepG2 cells assessed as number of cells at S phase at 20 uM after 48 hrs by flow cytometry (reference value: 24.31%); type: functional

## CC(=O)OC[C@@H]1O[C@H](O[C@H]2CC[C@@]3(C)C(=CC[C@]4(O)[C@@H]3C[C@@H](OC(=O)/C=C(\C)C(C)C)[C@@]3(C)[C@]4(O)CC[C@@]3(O)C(C)=O)C2)[C@@H](OC(C)=O)[C@H](OC(C)=O)[C@H]1OC(C)=O
HepG2 [1]
  Activity: 15.75%
HepG2 [2]
  Activity: 11.3%
HepG2 [3]
  Activity: 0.184%
HepG2 [4]
  Activity: 51.38%
HeLa
  IC50: 7.6 µM
HepG2 [5]
  Activity: 15.99%
HCT-116
  IC50: 5.64 µM
HepG2 [6]
  IC50: 3.11 µM
HepG2 [7]
  Activity: 57%
MCF7
  IC50: 9.04 µM
HepG2 [8]
  Activity: 46.89%
HepG2 [9]
  Activity: 0.068%
HepG2 [10]
  Activity: 34.6%
HepG2 [11]
  Activity: 76.5%
HepG2 [12]
  Activity: 35.6%
HepG2 [13]
  Activity: 83.5%
HepG2 [14]
  Activity: 18%
HepG2 [15]
  Activity: 7.26%
HepG2 [16]
  Activity: 0.096%
HepG2 [17]
  Activity: 41.76%
HepG2 [18]
  Activity: 5.07%
HepG2 [19]
  Activity: 28.72%
HepG2 [20]
  Activity: 5.34%
HepG2 [21]
  Activity: 16.95%
HepG2 [22]
  Activity: 38.82%

## CC(=O)OC[C@H]1O[C@@H](O[C@H]2CC[C@@]3(C)C(=CC[C@]4(O)[C@@H]3C[C@@H](OC(=O)/C=C(\C)C(C)C)[C@@]3(C)[C@]4(O)CC[C@@]3(O)C(C)=O)C2)[C@H](OC(C)=O)[C@@H](OC(C)=O)[C@@H]1OC(C)=O
HeLa
  IC50: > 100 µM
HCT-116
  IC50: 26.6 µM
HepG2 [6]
  IC50: 65.8 µM
MCF7
  IC50: 93.4 µM

## CC(=O)[C@]1(O)CC[C@@]2(O)[C@]1(C)[C@H](OC(=O)/C=C(\C)C(C)C)C[C@@H]1[C@@]3(C)CC[C@H](O)CC3=CC[C@]12O [CAUDATIN]
HeLa
  IC50: > 100 µM
HCT-116
  IC50: 64.1 µM
HepG2 [6]
  IC50: 65.9 µM
MCF7
  IC50: > 100 µM

## C[C@H](OC(=O)c1cccnc1)[C@]1(O)CC[C@@]2(O)[C@]1(C)[C@H](OC(=O)/C=C/c1ccccc1)C[C@@H]1[C@@]3(C)CC[C@H](O)CC3=CC[C@]12O [GAGAMININ]
HeLa
  IC50: 96.4 µM
HCT-116
  IC50: 69.9 µM
HepG2 [6]
  IC50: 65 µM
MCF7
  IC50: > 100 µM
